Experimental data: patent US5506238A, “Biphenylmethane derivative and pharmacological use” (Eisai Co., Ltd., priority 1989, dated 1996)

Key:
[1] = biological target: T1, angiotensin II contracture of rabbit aortic strip (Oryctolagus cuniculus, UniProt P34976); test: Angiotensin II contracture antagonism through the use of rabbit aortic strip; assay type: cell-based, rabbit (New Zealand white); conditions: negative log of antagonist concentration giving dose ratio 2, Schild's equation, 40 min preincubation, read-out: pA2 (converted)
T1 construct: A spiral preparation of the aorta having a width of 1.5 to 2 mm and a length of 15 to 20 mm was prepared therefrom; from tissue; host or cells: thoracic aorta of male New Zealand white rabbit, spiral strip
T1 sequence (P34976 1-359): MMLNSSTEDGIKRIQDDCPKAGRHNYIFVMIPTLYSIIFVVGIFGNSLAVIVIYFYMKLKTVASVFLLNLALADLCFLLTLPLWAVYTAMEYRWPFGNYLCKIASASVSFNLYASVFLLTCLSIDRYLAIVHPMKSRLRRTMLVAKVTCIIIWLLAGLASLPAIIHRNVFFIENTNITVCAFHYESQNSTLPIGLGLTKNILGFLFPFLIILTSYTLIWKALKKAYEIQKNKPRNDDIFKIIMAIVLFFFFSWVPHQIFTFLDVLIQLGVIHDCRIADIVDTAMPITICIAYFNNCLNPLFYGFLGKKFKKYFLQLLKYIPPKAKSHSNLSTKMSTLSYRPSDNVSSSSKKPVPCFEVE
Protocol: (1) Angiotens in II contracture antagonism through the use of rabbit aortic strip A male New Zealand white rabbit having a weight of 2 to 3 kg was anesthetized with pentobarbital sodium, and the thoracic aorta was removed. A spiral preparation of the aorta having a width of 1.5 to 2 mm and a length of 15 to 20 mm was prepared therefrom and suspended in a 10-ml Magnus tank containing a Krebs bicarbonate solution (Krebs bicarbonate (mM): NaCl 118.4, KCl 4.7, CaCl2 2.0, MgSO4.7H2O 1.2, NaHCO3.25.0, KH2 PO4 1.2, glucose 11.1). 10^-5 M indomethacine was added thereto to eliminate the influence of prostaglandin. The Krebs solution was maintained at 37° C. and bubbled with 95% O2 -5% CO2. An initial tension of 1 g was applied to the strip, and the strip was allowed to stand for about 1 hr. Then, 50 mM KCl was added thereto to induce contracture. After the contracture was stabilized, the strip was washed. The above procedure was repeated twice, and the second contracture was taken as 100% contracture. Thereafter, angiotensin II was accumulatively added from 10^-10 to 3×10^-6 to prepare a dose-reaction curve. […] The contraction was recorded on a multi-pen recorder (R-10 manufactured by Rika Denki Kogyo Co., Ltd.) through a carrier amplifier (A[…] or A[…] manufactured by Nihon Koden Corp.) by making use of an isometric piezoelectric transducer ([…] manufactured by Nihon Koden Corp.). The potency of the angiotensin II antagonist was determined by calculating negative logarithm (-log) of a concentration of pA2 value [i.e., a concentration of competitive antagonist which makes the dose ratio of the active agent 2] through the use of Schild's equation.

[2] = Seven-day repeated oral administration, observation of death in SD rats; assay type: in vivo; conditions: 100 mg/kg/day orally for seven days; eight week-old male SD rats; observed until 24 hr after final administration
Protocol: Further, compound Nos. 1, 2, 5 and 6 listed in the above-described Table 1 were suspended in 0.5% MC (methylcellulose), and the suspension was orally administered to an eight week-old male SD (Sprague Dawley) rats (4 rats per group) in a dose of 100 mg/kg/day for seven days. The rats were observed until 24 hr after the final administration.

[3] = system: pressor reaction of angiotensin II; test: Inhibition of pressor reaction of angiotensin II on anesthetized rat (Wistar Kyoto) having blocked ganglions; assay type: in vivo; conditions: iv, 0.05 h, ganglion-blocked Wistar Kyoto rat, i.v., 3 min after administration, read-out: Dose necessary for shifting about doubled shift of pressor reaction of angiotensin toward right (ED50)
Protocol: (2) Inhibition of pressor reaction of angiotensin II on anesthetized rat (Wistar Kyoto) having blocked ganglions
A 9 to 25 week-old Wistar Kyoto male rat (Charles River Japan) was anesthetized with 50 mg/kg pentobarbital sodium intraperitoneally, and the carotid and jugular were cannulated. The carotid cannula was connected to a piezoelectric transducer (TP-200T), and recording was conducted with a polygraph system (RM-6000 manufactured by Nihon Koden Corp.) through a carrier amplifier (AP-601G manufactured by Nihon Koden Corp.) and an average blood pressure measuring panel (Nihon Koden Corp.) utilizing the integration of pulse waves. 10 mg/kg of pentolinium was administered intravenously through the jugular cannula to conduct ganglion blockade. […] Then, 0.1 to 10 mg/kg of the test compound was administered intravenously, and 0.03 to 1 μg/kg of angiotensin II was again administered intravenously 3 min after the administration of the test compound to determine the rate of shift of the dose-pressor reaction curve toward the right. A dose (C, ED50, mg/kg, i.v.) necessary for bringing about doubled shift of the dose-pressor reaction curve toward the right was determined from the dose of the antagonist (A, mg/kg, i.v.) and the above-described rate of shift (B). [formula]

Row | Compound | Kb [1] | death [2] | ED50 [3]
1 | CCCCc1nc2ccccc2n1Cc1ccc(-c2ccccc2-c2nn[nH]n2)cc1 [compound 1] | 7.76 nM | no death was observed | 0.74 mg/kg
2 | CCCc1nc2cccnc2n1Cc1ccc(-c2ccccc2-c2nn[nH]n2)cc1 [compound 2] | 0.832 nM | no death was observed | 0.15 mg/kg
3 | CCCc1nc2cccnc2n1Cc1ccc(-c2cc(Cl)ccc2-c2nnn[nH]2)cc1 [compound 3] | 1.55 nM |  | 0.44 mg/kg
4 | CCc1nc2cc(Br)cnc2n1Cc1ccc(-c2ccccc2-c2nnn[nH]2)cc1 [compound 4] | 10 nM |  | 1.57 mg/kg
5 | CCCc1nc2c(C)ccnc2n1Cc1ccc(-c2ccccc2-c2nn[nH]n2)cc1 [compound 5] | 0.0468 nM | no death was observed | 0.029 mg/kg
6 | CCc1nc2c(C)ccnc2n1Cc1ccc(-c2ccccc2-c2nnn[nH]2)cc1 [compound 6] | 0.0912 nM | no death was observed | 0.019 mg/kg
7 | Cc1ccnc2c1nc(C1CC1)n2Cc1ccc(-c2ccccc2-c2nnn[nH]2)cc1 [compound 7] | 0.0229 nM |  | 0.022 mg/kg
8 | CCCCc1nc2cccnc2n1Cc1ccc(-c2cc(OC)ccc2-c2nnn[nH]2)cc1 [compound 8] | 4.27 nM |  | 0.71 mg/kg
9 | CCCc1ccnc2c1nc(CC)n2Cc1ccc(-c2ccccc2-c2nnn[nH]2)cc1 [compound 9] | 23.4 nM |  | 1.33 mg/kg
10 | Cc1ccnc2c1nc(C(C)C)n2Cc1ccc(-c2ccccc2-c2nnn[nH]2)cc1 [compound 10] | 0.661 nM |  | 0.42 mg/kg
11 | CCSc1nc2c(C)ccnc2n1Cc1ccc(-c2ccccc2-c2nnn[nH]2)cc1 [compound 11] | 0.182 nM |  | 0.04 mg/kg
12 | CSc1nc2c(C)ccnc2n1Cc1ccc(-c2ccccc2-c2nnn[nH]2)cc1 [compound 12] | 0.525 nM |  | 0.13 mg/kg
13 | CCCc1nc2c(Cl)ccnc2n1Cc1ccc(-c2ccccc2C(=O)O)cc1 [compound 13] | 8.71 nM |  | 0.66 mg/kg
14 | CCc1nc2ccc(Cl)nc2n1Cc1ccc(-c2ccccc2-c2nnn[nH]2)cc1 [compound 14] | 2.95 nM |  | 0.35 mg/kg
15 | CCCc1nc2c(C)c(Cl)cnc2n1Cc1ccc(-c2ccccc2-c2nnn[nH]2)cc1 [compound 15] | 1.35 nM |  | 0.32 mg/kg
16 | CCc1nc2c(C)ccnc2n1Cc1ccc(-c2ccccc2C(=O)O)cc1 [compound 16] | 3.16 nM |  | 0.29 mg/kg

Row | Compound | Kb [1] | death [2] | ED50 [3]
17 | CCCc1nc2c(C)ccnc2n1Cc1ccc(-c2ccccc2C(=O)O)cc1 [compound 17] | 3.55 nM |  | 0.17 mg/kg
18 | Cc1ccnc2c1nc(C1CC1)n2Cc1ccc(-c2ccccc2C(=O)O)cc1 [compound 18] | 2.14 nM |  | 0.075 mg/kg
19 | Cc1ccnc2c1nc(C1CCC1)n2Cc1ccc(-c2ccccc2C(=O)O)cc1 [compound 19] | 4.9 nM |  | 0.25 mg/kg
20 | CCSc1nc2c(C)ccnc2n1Cc1ccc(-c2ccccc2C(=O)O)cc1 [compound 20] | 5.25 nM |  | 0.41 mg/kg
21 | CCCc1nc2c(C)ccnc2n1Cc1ccc(-c2cc(Cl)ccc2-c2nnn[nH]2)cc1 [compound 21] | 0.0115 nM |  | 0.071 mg/kg
22 | CCCc1nc2c(C)cc(C)nc2n1Cc1ccc(-c2ccccc2-c2nnn[nH]2)cc1 [compound 22] | 0.024 nM |  | 0.04 mg/kg
23 | CCCc1nc2c(C)cc(C)nc2n1Cc1ccc(-c2ccccc2C(=O)O)cc1 [compound 23] | 1.15 nM |  | 0.08 mg/kg
24 | Cc1cc(C)c2nc(C3CC3)n(Cc3ccc(-c4ccccc4-c4nnn[nH]4)cc3)c2n1 [compound 24] | 0.0138 nM |  | 0.015 mg/kg
25 | Cc1cc(C)c2nc(C3CC3)n(Cc3ccc(-c4ccccc4C(=O)O)cc3)c2n1 [compound 25] | 0.589 nM |  | 0.021 mg/kg
26 | CCOc1nc2c(C)ccnc2n1Cc1ccc(-c2ccccc2-c2nnn[nH]2)cc1 [compound 26] | 0.0263 nM |  | 0.0084 mg/kg
27 | CCCOc1nc2c(C)ccnc2n1Cc1ccc(-c2ccccc2-c2nnn[nH]2)cc1 [compound 27] | 0.372 nM |  | 0.034 mg/kg
28 | CC#Cc1nc2c(C)ccnc2n1Cc1ccc(-c2ccccc2-c2nnn[nH]2)cc1 [compound 28] | 0.891 nM |  | 0.04 mg/kg
29 | Cc1ccnc2c1nc(C1CC1)n2Cc1ccc(-c2cc(Cl)ccc2C(=O)O)cc1 [compound 29] | 3.39 nM |  | 0.06 mg/kg
30 | COc1nc2c(C)ccnc2n1Cc1ccc(-c2ccccc2-c2nnn[nH]2)cc1 [compound 30] | 0.132 nM |  | 0.016 mg/kg
31 | CCOc1nc2c(C)cc(C)nc2n1Cc1ccc(-c2ccccc2-c2nnn[nH]2)cc1 [compound 31] | 0.182 nM |  | 0.01 mg/kg
32 | CCOc1nc2c(C)cc(C)nc2n1Cc1ccc(-c2ccccc2C(=O)O)cc1 [compound 32] | 0.575 nM |  | 0.018 mg/kg
